Assay results from patent US10532066B2, “Surfactant lipids, compositions thereof, and uses thereof” (National Jewish Health, priority 2007, dated 2020).

Key:
TLR6 = molecular target: T1, TLR6 (Mus musculus, UniProt Q9EPW9); test: TLR agonist TNFα production in RAW 264.7 cells, TLR6; format: cell-based; settings: MALP2, 24 h
T1 construct: endogenous in cells; host or cells: RAW 264.7
Procedure: In this experiment, multiple TLRs were stimulated with defined TLR agonists for 24 h and the TNFα production was measured. In each case, the maximal stimulation by agonist is set at 100% and the antagonism by POPG is expressed as the relative % response. The Controls consist of no treatment, or treatment with POPG in the absence of agonist as indicated. The agonists for the TLRs consist of Pam3Cys for TLR1/2, Mycoplasma pneumoniae membranes as an agonist for TLR2, mycoplasma derived MALP2 as an agonist for TLR 2/6, double stranded RNA (poly IC) for TLR3, Gram-negative lipopolysaccharide for TLR4, and CpG rich DNA as an agonist for TLR9. The TLR4 panel also contains the antagonist polymyxin B (PB) for comparison with POPG.

RSV = RSV binding to Hep2 cells (FACScan); format: cell-based, Respiratory Syncytial Virus (RSV); settings: Hep2, multiplicity 50, 37 C 10 min, lipid 200 ug/ml
Procedure: Suspensions of 3×10^5 Hep2 cells were treated with RSV at a multiplicity of 50, at 37 C for 10 min, in either the absence of lipid, or the presence of 200 ug/ml POPG, or POPC, as indicated. The cells were next shifted to 0 C and washed 3 times with PBS. The cells were then incubated with monoclonal mouse anti-RSV antibody for 1 h at 0 C in PBS containing 5% BSA. The unbound antibody was removed by washing the cells 3 times with PBS, 5% BSA. Next, the cells were incubated with phycoerythrin conjugated rabbit anti-mouse antibody in PBS, 5% BSA for 2 h. Following this incubation the cells were washed 3 times with PBS and fixed overnight with 1% buffered formalin. The fixed cell preparation was washed 3 times with PBS and subjected to FACScan analysis as shown in the left panel of FIG. 38. The summary of the mean fluorescence intensity (MFI) for all conditions is shown in the right panel of FIG. 38.

[1] = tested on: Respiratory Syncytial Virus (RSV); test: RSV replication in BEAS2B cells (anti-RSV antibody staining); format: cell-based; settings: multiplicity 3, 72 h, POPG 200 ug/ml
Procedure: Monolayers of BEAS2B and NHBE cells were infected with RSV at a multiplicity of 3 for 72 h. Infections were performed on cells in either the absence or the presence of POPG (200 ug/ml). The cell monolayers were fixed and stained with goat anti-human RSV antibody conjugated with horseradish peroxidase. The presence of the antibody was detected with diaminobenzamidine. Controls consisted of cell layers not exposed to the virus or exposed to POPG in the absence of virus as indicated.

[2] = tested on: Respiratory Syncytial Virus (RSV); test: RSV-induced cytokine production in BEAS2B cells; format: cell-based
sTLR4 = sTLR4 (Homo sapiens, UniProt O00206); test: sTLR4 binding to solid phase POPG; settings: sTLR4 1 μg/ml
Sequence of sTLR4 (O00206 24-631): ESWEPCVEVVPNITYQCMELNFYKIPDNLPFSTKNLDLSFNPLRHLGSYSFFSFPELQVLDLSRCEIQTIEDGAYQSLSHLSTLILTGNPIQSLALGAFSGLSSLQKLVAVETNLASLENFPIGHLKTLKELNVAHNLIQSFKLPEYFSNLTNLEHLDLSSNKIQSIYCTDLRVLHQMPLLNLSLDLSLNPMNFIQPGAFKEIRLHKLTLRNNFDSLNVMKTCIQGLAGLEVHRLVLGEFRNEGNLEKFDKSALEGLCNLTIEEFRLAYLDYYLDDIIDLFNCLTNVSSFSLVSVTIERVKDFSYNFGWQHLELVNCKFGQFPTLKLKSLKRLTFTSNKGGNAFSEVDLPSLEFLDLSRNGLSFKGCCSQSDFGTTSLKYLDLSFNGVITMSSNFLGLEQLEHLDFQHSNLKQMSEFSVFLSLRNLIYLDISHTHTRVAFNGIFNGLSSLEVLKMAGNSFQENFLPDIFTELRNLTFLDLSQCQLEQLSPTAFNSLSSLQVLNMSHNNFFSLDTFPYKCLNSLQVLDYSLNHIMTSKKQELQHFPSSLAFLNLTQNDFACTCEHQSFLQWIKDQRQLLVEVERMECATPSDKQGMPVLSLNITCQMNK
Procedure: (A) POPG (1.25 nmole) was placed onto microtiter wells and the solvent evaporated. After blocking nonspecific binding with buffer A, MD-2, sTLR4 and PstB2 (1 μg/ml) in buffer A were added and incubated at 37° C. for 1 h. The binding of recombinant proteins to POPG was detected using anti-His antibody. […] The data shown are the means±S.E. from three separate experiments each with duplicate determinations.

TLR3 = molecular target: T2, TLR3 (Homo sapiens, UniProt O15455); test: TLR agonist IL-8 production in primary human neutrophils, TLR3; format: cell-based; set-up: endogenous in cells; host or cells: primary human neutrophils; settings: poly IC, 5-24 h
T2 sequence (O15455 24-904): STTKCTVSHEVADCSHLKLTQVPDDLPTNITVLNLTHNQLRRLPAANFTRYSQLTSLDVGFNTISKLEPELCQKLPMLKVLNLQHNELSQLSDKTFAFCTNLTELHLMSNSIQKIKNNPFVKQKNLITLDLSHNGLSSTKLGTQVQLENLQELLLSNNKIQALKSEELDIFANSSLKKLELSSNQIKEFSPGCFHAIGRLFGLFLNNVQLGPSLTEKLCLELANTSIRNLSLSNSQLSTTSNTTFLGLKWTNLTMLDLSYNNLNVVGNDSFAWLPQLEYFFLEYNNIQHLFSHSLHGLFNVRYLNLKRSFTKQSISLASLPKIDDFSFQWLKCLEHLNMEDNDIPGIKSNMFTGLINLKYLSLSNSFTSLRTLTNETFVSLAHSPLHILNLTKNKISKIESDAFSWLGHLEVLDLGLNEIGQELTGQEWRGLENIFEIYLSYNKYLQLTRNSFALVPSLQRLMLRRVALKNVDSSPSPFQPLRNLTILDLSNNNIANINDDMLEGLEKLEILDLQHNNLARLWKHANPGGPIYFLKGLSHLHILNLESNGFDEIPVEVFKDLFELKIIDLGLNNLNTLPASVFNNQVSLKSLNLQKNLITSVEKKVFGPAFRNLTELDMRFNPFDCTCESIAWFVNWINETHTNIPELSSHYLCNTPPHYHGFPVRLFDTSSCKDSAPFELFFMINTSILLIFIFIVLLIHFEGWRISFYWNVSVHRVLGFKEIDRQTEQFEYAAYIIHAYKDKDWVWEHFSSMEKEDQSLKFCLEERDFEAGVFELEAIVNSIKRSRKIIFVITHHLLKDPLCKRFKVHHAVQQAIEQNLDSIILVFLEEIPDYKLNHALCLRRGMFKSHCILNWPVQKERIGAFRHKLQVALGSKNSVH
Procedure: In this experiment, multiple TLRs were stimulated with defined TLR agonists for 5-24 h as indicated, and the IL-8 production was measured. In each case the maximal stimulation by agonist is set at 100% and the antagonism by POPG is expressed as the relative % response. The Controls consist of no treatment, or treatment with POPG, in the absence of agonist as indicated. The agonists for the TLRs consist of Pam3Cys for TLR1/2, double stranded RNA (poly IC) for TLR3, Gram-negative lipopolysaccharide (LPS) for TLR4, and single stranded RNA (polyU) for TLR7/8.

multiple TLRs = test: Activation of primary bronchial epithelial cells by multiple TLRs (IL-8, Example 9); format: cell-based, human; settings: 200 ug/ml POPG, 24 h
Procedure: Monolayers of normal human bronchial epithelial cells were stimulated with the TLR3 agonist, polyI:C (0.1 ug/ml); the TLR5 agonist, flagellin (10 ng/ml) and the TLR7/8 agonist polyU (100 ug/ml) for 24 h in either the absence or presence of 200 ug/ml POPG, or POPC as indicated. Cultures were also treated with POPG or POPC alone, as additional controls. After 24 h the medium was harvested and centrifuged to remove non-adherent cells, and processed to detect IL-8 production by ELISA. Values shown in FIG. 33 are averages±SE for 3 independent experiments.

[3] = RSV multiplicity 3, 48 h, lipid 200 ug/ml

T1 sequence (Q9EPW9 28-795): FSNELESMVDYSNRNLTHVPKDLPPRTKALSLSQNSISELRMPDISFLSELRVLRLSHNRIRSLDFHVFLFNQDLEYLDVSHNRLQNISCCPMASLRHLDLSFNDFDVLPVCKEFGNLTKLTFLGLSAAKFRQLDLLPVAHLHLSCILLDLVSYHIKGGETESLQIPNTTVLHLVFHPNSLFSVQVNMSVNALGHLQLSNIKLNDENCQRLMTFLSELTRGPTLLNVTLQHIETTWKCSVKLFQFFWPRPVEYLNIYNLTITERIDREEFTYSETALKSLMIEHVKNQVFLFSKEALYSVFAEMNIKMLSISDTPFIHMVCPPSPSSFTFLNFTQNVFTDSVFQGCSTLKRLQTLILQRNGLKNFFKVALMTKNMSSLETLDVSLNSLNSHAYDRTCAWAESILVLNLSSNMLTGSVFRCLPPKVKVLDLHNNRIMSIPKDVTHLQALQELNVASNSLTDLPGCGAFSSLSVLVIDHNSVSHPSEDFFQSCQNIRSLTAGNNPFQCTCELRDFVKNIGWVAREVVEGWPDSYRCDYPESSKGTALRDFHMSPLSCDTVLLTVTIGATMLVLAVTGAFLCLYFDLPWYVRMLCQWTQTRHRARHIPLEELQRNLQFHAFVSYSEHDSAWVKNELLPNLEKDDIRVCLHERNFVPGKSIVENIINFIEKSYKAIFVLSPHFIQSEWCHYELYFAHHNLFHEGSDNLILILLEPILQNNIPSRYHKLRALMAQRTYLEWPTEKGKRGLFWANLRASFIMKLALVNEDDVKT

In the case of `CCCCCCCC/C=C\CCCCCCCC(=O)O[C@H](COC(=O)CCCCCCCCCCCCCCC)COP(=O)(O)OCC(O)CO` (stereo partly shown) [POPG, palmitoyl-oleoyl-phosphatidylglycerol], the “activity of TLR6 (TNFα production)” value (TLR6) is reported as “inhibits”, the “binding of RSV to epithelial cells” value (RSV) is reported as “blocks the binding” and the viral replication [1] is reported as “prevents viral replication”. The “IL-8 production, varying concentrations of POPG” value ([2]; RSV multiplicity 0.5, 48 hours) was “inhibits IL-8 production from epithelial cells in a concentration-dependent manner”, the “inflammatory cytokine production (IL-6, IL-8)” value ([2]; RSV multiplicity 0.5-1, 48 h, 200 ug/ml) was “suppresses” and the IL-6 production [2, 3] was “inhibits”. For the same compound, the IL-8 production [2, 3] was “inhibits”, the “binding to sTLR4” value (sTLR4) was “not” and the “activity of TLR3 (IL-8 production)” value (TLR3) was “inhibits”. The “activation of primary bronchial epithelial cells by multiple TLRs (IL-8)” value (multiple TLRs) was “inhibits activation”.
